Source: US20090088380A1, “GHRH ANALOGS AND THERAPEUTIC USES THEREOF” (priority 2007, published 2009)
Several values for one entry are separate records, joined by “and”; a condition that tells them apart may be missing. Equal entries are not always repeated. Non-standard residues stand in square brackets, D forms with d. Residues, ends and D or L forms follow the SMILES beside them.

Legend:
healthy male volunteers = test: Phase I/II study in healthy male volunteers: safety and tolerability; type: in vivo, human
Procedure: In order to evaluate the safety of the drug, all reported adverse events were considered during the study. The effects of the drug exerted specifically on the liver, renal, thyroid, cardiac and haematological functions were evaluated. The MED was defined as the dose of the GHRH(1-29)NH2 synthetic analog lower than the subsequent dose that produced the best secretion profile of GH.
It was a crossover single-blinded Phase I/II trial of escalating doses of the GHRH(1-29)NH2 synthetic analog controlled versus placebo. Ten healthy middle-aged male volunteers, between 50 and 55 years old, were recruited. All 10 subjects received a single subcutaneous dose of the GHRH(1-29)NH2 synthetic analog (reconstituted in water for injection), per day for 5 days, in a dose range from 5 to 25 μg/kg of body weight (lower than the maximal dose used to treat GH deficiency in children, which was 30 μg/kg of body weight).
After signing the informed consent form, all volunteers were clinically evaluated by the investigator and a chest x-ray and basal electrocardiogram and routine laboratory tests were performed. The analysis included: haemogram (hematocrit, haemoglobin, complete blood cell count, mean cell volume (MCV), mean corpuscular haemoglobin concentration (MCHC) and platelet count), liver function tests (aminotransferases, total proteins, albumin, alkaline phosphatase, billirubin, lactate dehydrogenase and prothrombin time), biochemistry (creatinine, urea, sodium, potassium, calcium, phosphorus, fasting glucose and postprandial glucose), urinalysis (pH, glucose, blood, proteins, and leukocytes), triiodothyronine, thyroxin and thyroid stimulating hormone (TSH), serology, basal level of IGF-1 and urine drug abuse screening.
Once the volunteers were considered eligible, they were hospitalized for a period of 5 consecutive days. On Day 0 of admission successive samples of blood were taken to perform the basal secretion profile of GH during 24 hours. During 5-day hospitalization period, after the initial blood sampling to determine fasting glucose level, the appropriate dose of the GHRH(1-29)NH2 synthetic analog or placebo was administered and multiple samplings were performed to assess the profile of GH, postprandial glucose level and electrocardiogram after 60 minutes of the application of the GHRH(1-29)NH2 synthetic analog/placebo. Eight hours after drug administration, samples were obtained to determine IGF-1 level, thyroid hormones and routine analysis. After 30 days of admission, all the volunteers returned for new clinical evaluation to record any adverse events that could have occurred from the last day of hospitalization period and to take a blood sample for later determination of anti-GHRH(1-29)NH2 synthetic analog antibodies.

Canine Growth Hormone = test: In vivo GH secretion in a male Beagle dog, escalating SC doses, RIA
Excerpt: In order to assess such use of the GHRH analogs, the following experiments were undertaken. […] The above GHRH analog is a variation of a synthetic acetate salt of an amidated synthetic 29-amino acid peptide that corresponds to the amino-terminal segment of the naturally-occurring human growth hormone—releasing hormone (GHRH) with four amino acid substitutions in positions 2, 10, 15, and 22.
Prior to administration, all dosing formulations were filtered using a 0.22 μm filter to ensure sterility. […] Dosing started at approximately the same time each day, commencing at 9:00 am ±30 minutes.
For pharmacodynamic investigations, blood samples (approximately 1.0 ml) were collected from the dog on each treatment day via a jugular venipuncture at the following time points: pre-dose, 7, 15, 22, 30, 45, and 60 minutes post dosing. All blood samples were collected into potassium EDTA tubes and centrifuged under refrigeration (2 to 8° C., 1500 g for 10 minutes).
Plasma GH was determined by Linco Diagnostic Services using their own kit. Linco's Porcine/Canine Growth Hormone radioimmunoassay kit (RIA) (PGH-46HK) has been developed to quantitate Growth Hormone in plasma, serum, and tissue culture media. It is a completely homologous assay since the antibody was raised against recombinant Porcine Growth Hormone and both the standard and tracer are prepared with recombinant Porcine Growth Hormone. Since the amino acid sequences of Porcine Growth Hormone and Canine Growth Hormone are identical, this assay developed for Porcine Growth Hormone measures Canine Growth Hormone levels with equal efficiency. All components are included (standards, antibody, tracer, quality controls, precipitating reagents and buffer) necessary to complete a RIA. The assay was conducted under the following conditions: overnight; equilibrium incubation at room temperature; sample volume: 100 μl serum, plasma, or cell culture media.

[1] = In vitro proteolysis assay in human serum; type: in vitro ADME
Procedure: Proteolysis was stopped by adding 800 μl of ice-cold stop buffer (potassium-phosphate buffer, acidified to pH 0.8 with trifluoroacetic acid (TFA) and boiling 5 min (rat serum only). After centrifugation (12000 g, 5 min, 4° C.) (rat serum only), serum-peptide mixtures were passed through a conditioned Sep-Pak C-18 cartridge to extract native GHRH or a GHRH analog residual concentrations from serum proteins. The native GHRH or the analog was eluted in 2 ml of 50% acetonitrile-0.01% TFA/50% 0.01% aqueous TFA. 200 μl of extracted peptide, representing 1 μg of GHRH or analog at time 0, was quantified by analytical HPLC, using one μ-Bondapak C18 column (10 μm particle size, 0.39×15 cm) (rat serum) or two C18 columns in series (human serum and plasma) and a binary solvent system composed of NaClO4 0.01 M, pH 2.5 and acetonitrile. A linear gradient from 30 to 60% acetonitrile over 45 min (rat serum) or 30 to 50% (human serum and plasma) was used. Elution of intact peptide was monitored at 214 nm and residual concentration determined by assessment of peak surface areas.

[2] = system: malnourished subjects with CKD; test: Phase II CKD: dietary assessment (spontaneous nutrient intake); type: in vivo, human; conditions: ITT
Procedure: Dietary assessments were performed at the baseline visit and were repeated on Day 28. The subjects were asked to write down everything they ate and drank throughout the 3 days preceding the visit. The local dietician then calculated the mean amount of carbohydrates, fat and protein consumed by the subjects per day and calculated energy intake.

[3] = all volunteers, throughout the study
[4] = Baseline, listed as GHRH(1-29)NH2 synthetic analog
[5] = Day 28, listed as GHRH(1-29)NH2 synthetic analog

CC[C@H](C)[C@H](NC(=O)[C@H](C)NC(=O)[C@H](CC(=O)O)NC(=O)[C@@H](C)NC(=O)[C@@H](N)Cc1ccc(O)cc1)C(=O)N[C@@H](Cc1ccccc1)C(=O)N[C@H](C(=O)N[C@@H](CC(N)=O)C(=O)N[C@@H](CO)C(=O)N[C@H](Cc1ccc(O)cc1)C(=O)N[C@@H](CCCNC(=N)N)C(=O)N[C@@H](CCCCN)C(=O)N[C@H](C(=O)N[C@@H](CC(C)C)C(=O)N[C@H](C)C(=O)N[C@@H](CCC(N)=O)C(=O)N[C@@H](CC(C)C)C(=O)N[C@@H](CO)C(=O)N[C@@H](C)C(=O)N[C@@H](CCCNC(=N)N)C(=O)N[C@@H](CCCCN)C(=O)N[C@@H](CCCCN)C(=O)N[C@@H](CC(C)C)C(=O)N[C@@H](CCC(N)=O)C(=O)N[C@@H](CC(=O)O)C(=O)N[C@H](C(=O)N[C@@H](CCSC)C(=O)N[C@@H](CO)C(=O)N[C@@H](CCCNC(=N)N)C(N)=O)[C@@H](C)CC)C(C)C)[C@@H](C)O [GHRH analog #5, [D-Ala^2, D-Tyr^10, D-Ala^15, Lys^22] hGHRH(1-29)-NH2] (H-Y[dA]DAIFTNS[dY]RKVL[dA]QLSARKKLQDIMSR-NH2)
Serious adverse events (healthy male volunteers; 5 to 25 μg/kg sc, healthy male volunteers): no serious adverse events were reported
Aminotransferase elevation, one case (healthy male volunteers; Day 1 to Day 5): less than 2.5 times the upper normal limit
Neutrophils, neutropenia case (healthy male volunteers; Day 2, after 10 μg/kg dose): 1,406 neutrophyles/mm3
White blood cells, leukopenia case (healthy male volunteers; Day 2, after 10 μg/kg dose): 3,800 WBC/mm3
Eosinophils, eosinophilia in one volunteer (healthy male volunteers; Day 5, 5 μg/kg dose): 808 eosinophyls/mm3
White blood cells, leukocytosis in one volunteer (healthy male volunteers; Day 5, 5 μg/kg dose): 12,400 WBC/mm3
Mean decrease of haematocrit (healthy male volunteers; [3]): 10.1±1.9 points
Mean decrease of haemoglobin (healthy male volunteers; [3]): 2.8 ± 0.8 g/dL
Thyroid anomalies, cardiac dysfunction (healthy male volunteers; human, in vivo): Neither thyroid anomalies nor cardiac dysfunction were reported
Canine Growth Hormone (Canine Growth Hormone; 0.01 mg/kg BW SC, 0 min): 1.99 ng/mL
Canine Growth Hormone (Canine Growth Hormone; 0.01 mg/kg BW SC, 7 min): 1.99 ng/mL
Canine Growth Hormone (Canine Growth Hormone; 0.01 mg/kg BW SC, 15 min): 5 ng/mL
Canine Growth Hormone (Canine Growth Hormone; 0.01 mg/kg BW SC, 22 min): 4 ng/mL
Canine Growth Hormone (Canine Growth Hormone; 0.01 mg/kg BW SC, 30 min): 11 ng/mL
Canine Growth Hormone (Canine Growth Hormone; 0.01 mg/kg BW SC, 45 min): 17 ng/mL
Canine Growth Hormone (Canine Growth Hormone; 0.01 mg/kg BW SC, 60 min): 11 ng/mL
Canine Growth Hormone (Canine Growth Hormone; 0.1 mg/kg BW SC, 0 min): 1.99 ng/mL
Canine Growth Hormone (Canine Growth Hormone; 0.1 mg/kg BW SC, 7 min): 5 ng/mL
Canine Growth Hormone (Canine Growth Hormone; 0.1 mg/kg BW SC, 15 min): 9 ng/mL
Canine Growth Hormone (Canine Growth Hormone; 0.1 mg/kg BW SC, 22 min): 7 ng/mL
Canine Growth Hormone (Canine Growth Hormone; 0.1 mg/kg BW SC, 30 min): 6 ng/mL
Canine Growth Hormone (Canine Growth Hormone; 0.1 mg/kg BW SC, 45 min): 5 ng/mL
Canine Growth Hormone (Canine Growth Hormone; 0.1 mg/kg BW SC, 60 min): 1.99 ng/mL
Canine Growth Hormone (Canine Growth Hormone; 1 mg/kg BW SC, 0 min): 1.99 ng/mL
Canine Growth Hormone (Canine Growth Hormone; 1 mg/kg BW SC, 7 min): 4 ng/mL
Canine Growth Hormone (Canine Growth Hormone; 1 mg/kg BW SC, 15 min): 14 ng/mL
Canine Growth Hormone (Canine Growth Hormone; 1 mg/kg BW SC, 22 min): 9 ng/mL
Canine Growth Hormone (Canine Growth Hormone; 1 mg/kg BW SC, 30 min): 19 ng/mL
Canine Growth Hormone (Canine Growth Hormone; 1 mg/kg BW SC, 45 min): 7 ng/mL
Canine Growth Hormone (Canine Growth Hormone; 1 mg/kg BW SC, 60 min): 7 ng/mL
Treatment-related clinical signs (Canine Growth Hormone; dog): No treatment-related clinical signs were observed
GH response compared with natural hGHRH(1-44)NH2 (Canine Growth Hormone; dog, AUC not measured): significantly larger
GH secretion into peripheral blood, dose dependence (Canine Growth Hormone; dog, subcutaneous): dose-dependent response
Optimal sc dose (Canine Growth Hormone; dogs): 10 μg/kg body weight
R2 (60 min) ([1]; 60-min incubation in human serum): 1.55 ± 0.04
R2 (180 min) ([1]; 180-min incubation in human serum): 2.93 ± 0.87
Mean residual amount (%) ([1]; human serum, IT 0 min): 100%
Energy intake: mean (SD) ([2]; Baseline): 1654 kcal/day and 1654.45 (394.75) kcal/day
Protein intake: mean (SD) ([2]; Baseline): 62.46 g/day and 62.46 (17.71) g/day
Energy intake: mean (SD) [2, 4]: 1654.5 kcal/day
Protein intake: mean (SD) [2, 4]: 62.5 g/day
Energy intake: mean (SD) ([2]; Day 28): 1533 kcal/day and 1532.70 (384.52) kcal/day
Protein intake: mean (SD) ([2]; Day 28): 58.49 g/day and 58.49 (19.76) g/day
Energy intake: mean (SD) [2, 5]: 1532.7 kcal/day
Protein intake: mean (SD) [2, 5]: 58.5 g/day
